The experiment concerns the target T1, human ΔF508-CFTR (Homo sapiens, UniProt P13569, DEL508-508).
T1 construct: expressed in transfected cells
As to the kind of experiment: CFTR-YFP High Throughput Assay (YFP halide flux in FRT cells). It is filed as cell-based. The note with it: FRT cells expressing human ΔF508-CFTR and YFP; forskolin stimulated. The procedure:
Assays for Detecting and Measuring the Effect of Compounds on dF508-CFTR Channels CFRT-YFP High Throughput Assay:
The following protocol is designed to selectively screen small molecule compounds for F508del CFTR corrector activities in the HTS YFP flux assay. In this protocol, the cells are incubated with testing compounds for 24 hours, washed with PBS, stimulated with forskolin and a standard potentiator, and read on a 384-well HTS plate reader, such as the Hamamatsu FDDD-6000.
YFP fluorescence intensity is acquired at high speed before and after iodide buffer is injected to the assay cells. Iodide enters the cells via active CFTR channels in the plasma membrane, and quenches the YFP fluorescence. The rate of fluorescence quenching is proportionally related to the total CFTR activities in the cell membrane. dF508-CFTR corrector accelerates YFP quenching by increasing the number of CFTR molecules in the testing cell plasma membrane.
This method was initially developed for bench top plate readers (Galietta et al., 2001), and was adapted to the HTS format (Sui et al. Assay Drug Dev. Technol. 2010).
Fisher Rat Thyroid (FRT) cells stably expressing both human AF508-CFTR and a halide-sensitive yellow fluorescent protein (YFP—H148Q/1152L 25, 22) (Galietta et al., Am. J. Physiol Cell Physiol 281(5), C1734, 2001) were cultured on plastic surface in Coon's modified Ham's F12 medium supplemented with FBS 10%, L-glutamine 2 mM, penicillin 100 U/mL, and streptomycin 100 μg/mL. G418 (0.75-1.0 mg/mL) and zeocin (3.2 ug/mL) were used for selection of FRT cells expressing ΔF508-CFTR and YFP. For primary screening, FRT cells were plated into 384-well black wall, transparent bottom microtiter plates (Costar; Corning Inc.) at a cell density of 20,000-40,000 per well. Test compound was applied to the cells at varying concentrations ranging from […] in either a 2-fold or 3-fold dilution series. Cells were incubated in a cell culture incubator at 37° C. with 5% CO2 for 24-26 h. Assay plates were washed with DPBS media (Thermo, cat# SH30028.02) to remove unbound cells and compound. Stimulation media (25 μL) containing 20 μM Forskolin & 30 μM P3 [6-(Ethyl-phenyl-sulfonyl)-4-oxo-1,4-dihydro-quinoline-3-carboxylic acid 2-methoxy-benzylamide] in Hams F-12 coon's modified media was added to the plate wells and incubated at room temperature for 60-120 min. 25 μL of HEPES-PBS-I buffer (10 mM HEPES, 1 mM MgCl2, 3 mM KCl, 1 mM CaCl2, 150 mM NaI) was then added and fluorescence quench curves (Excitation 500 nm/Emission 540 nm; exposure 136 ms) were immediately recorded on an FDSS-6000 plate reader (Hamamatsu). Quench rates were derived from least squares fitting of the data as described by Sui et al., (2010).
The following protocol is designed to selectively screen small molecule compounds for F508del CFTR potentiator activities in the HTS YFP flux assay. In this protocol, the cells are incubated at 27 C for 24 hours with homogeneously boosted dF508-CFTR expression in the cell membrane by the low temperature, washed with PBS, stimulated with forskolin, and read on a 384-well HTS plate reader, such as the Hamamatsu FDDD-6000.
YFP fluorescence intensity is acquired at high speed before and after iodide buffer is injected to the assay cells. Iodide enters the cells via active CFTR channels in the plasma membrane, and quenches the YFP fluorescence. The rate of fluorescence quenching is proportionally related to the total CFTR activities in the cell membrane. dF508del-CFTR potentiators accelerate YFP quenching by increasing CFTR activities in the testing cell plasma membrane.
Fisher Rat Thyroid (FRT) cells stably expressing both human ΔF508-CFTR and a halide-sensitive yellow fluorescent protein (YFP-H148Q/I152L 25, 22) (Galietta et al., Am. J. Physiol Cell Physiol 281(5), C1734, 2001) were cultured on plastic surface in Coon's modified Ham's F12 medium supplemented with FBS 10%, L-glutamine 2 mM, penicillin 100 U/mL, and streptomycin 100 μg/mL. […]
T1 sequence (P13569 with tags, fused parts or gaps DEL508-508): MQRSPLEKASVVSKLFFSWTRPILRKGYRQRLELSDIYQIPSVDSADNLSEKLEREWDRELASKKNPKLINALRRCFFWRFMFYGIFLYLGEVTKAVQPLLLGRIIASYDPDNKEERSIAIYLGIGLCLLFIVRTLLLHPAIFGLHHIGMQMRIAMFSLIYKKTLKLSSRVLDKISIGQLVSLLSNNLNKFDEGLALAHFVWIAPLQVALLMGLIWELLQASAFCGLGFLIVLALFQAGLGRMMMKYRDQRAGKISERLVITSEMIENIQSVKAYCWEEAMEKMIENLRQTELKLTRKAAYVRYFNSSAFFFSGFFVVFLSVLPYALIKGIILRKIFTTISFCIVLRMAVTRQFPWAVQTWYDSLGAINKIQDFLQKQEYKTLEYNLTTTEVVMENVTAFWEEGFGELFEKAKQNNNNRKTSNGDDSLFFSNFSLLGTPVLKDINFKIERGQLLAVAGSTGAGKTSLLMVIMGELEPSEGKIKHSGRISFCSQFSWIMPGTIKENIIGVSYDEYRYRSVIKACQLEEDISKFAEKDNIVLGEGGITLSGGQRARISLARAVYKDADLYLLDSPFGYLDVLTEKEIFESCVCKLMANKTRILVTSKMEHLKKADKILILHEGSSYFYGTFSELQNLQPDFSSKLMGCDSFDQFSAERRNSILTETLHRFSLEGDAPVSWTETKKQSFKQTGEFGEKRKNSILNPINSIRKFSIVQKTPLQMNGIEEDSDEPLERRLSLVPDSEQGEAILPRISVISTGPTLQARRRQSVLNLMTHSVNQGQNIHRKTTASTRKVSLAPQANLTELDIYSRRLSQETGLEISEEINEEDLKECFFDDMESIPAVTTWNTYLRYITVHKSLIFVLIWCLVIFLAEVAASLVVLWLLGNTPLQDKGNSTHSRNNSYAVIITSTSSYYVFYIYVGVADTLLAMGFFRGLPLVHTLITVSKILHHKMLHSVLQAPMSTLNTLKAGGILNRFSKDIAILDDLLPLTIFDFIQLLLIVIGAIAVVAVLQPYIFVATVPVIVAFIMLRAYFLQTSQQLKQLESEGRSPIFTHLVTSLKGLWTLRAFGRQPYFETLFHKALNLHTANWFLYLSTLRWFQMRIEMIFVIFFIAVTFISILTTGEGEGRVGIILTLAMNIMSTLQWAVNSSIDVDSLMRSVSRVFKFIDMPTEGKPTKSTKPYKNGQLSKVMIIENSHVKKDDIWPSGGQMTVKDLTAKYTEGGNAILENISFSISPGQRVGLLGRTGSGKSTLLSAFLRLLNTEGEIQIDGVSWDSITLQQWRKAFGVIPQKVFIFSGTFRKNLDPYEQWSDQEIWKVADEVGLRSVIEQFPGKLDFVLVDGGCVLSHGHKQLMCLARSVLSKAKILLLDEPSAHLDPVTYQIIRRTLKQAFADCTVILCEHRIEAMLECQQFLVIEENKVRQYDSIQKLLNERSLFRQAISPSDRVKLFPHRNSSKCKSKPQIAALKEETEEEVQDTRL
By EC50 is commonly meant the concentration giving half of the maximal effect. For the compound `CCN(C(=O)Cn1nc(Cc2cccnc2)c2cc(C(C)(C)C)ccc2c1=O)c1ccc2c(c1)OC(F)(F)O2` [Example 49, 2-(6-(tert-butyl)-1-oxo-4-(pyridin-3-ylmethyl)phthalazin-2(1H)-yl)-N-(2,2-difluorobenzo[d][1,3]dioxol-5-yl)-N-ethylacetamide], the concentration for a half-maximal effect (EC50) is less than 10 µM. With `CCN(C(=O)Cn1nc(Cc2cccnc2)c2ccc(C(C)(C)C)cc2c1=O)c1ccc2c(c1)OC(F)(F)O2` [Example 50, 2-(7-(tert-butyl)-1-oxo-4-(pyridin-3-ylmethyl)phthalazin-2(1H)-yl)-N-(2,2-difluorobenzo[d][1,3]dioxol-5-yl)-N-ethylacetamide] the figure was less than 10 µM.

In the case of `CCN(C(=O)Cn1nc(Cc2cccnc2)c2cc(OC)ccc2c1=O)c1ccc2c(c1)OC(F)(F)O2` [Example 51, N-(2,2-difluorobenzo[d][1,3]dioxol-5-yl)-N-ethyl-2-(6-methoxy-1-oxo-4-(pyridin-3-ylmethyl)phthalazin-2(1H)-yl)acetamide], the EC50 is less than 10 µM. With `CCN(C(=O)Cn1nc(Cc2cccnc2)c2ccc(OC)cc2c1=O)c1ccc2c(c1)OC(F)(F)O2` [Example 52, N-(2,2-difluorobenzo[d][1,3]dioxol-5-yl)-N-ethyl-2-(7-methoxy-1-oxo-4-(pyridin-3-ylmethyl)phthalazin-2(1H)-yl)acetamide] the figure was less than 10 µM. With `CCN(C(=O)Cn1nc(Cc2cccnc2)c2cc(Cl)ccc2c1=O)c1ccc2c(c1)OC(F)(F)O2` [Example 53, 2-(6-chloro-1-oxo-4-(pyridin-3-ylmethyl)phthalazin-2(1H)-yl)-N-(2,2-difluorobenzo[d][1,3]dioxol-5-yl)-N-ethylacetamide] the figure was less than 10 µM; with `CCN(C(=O)Cn1nc(Cc2cccnc2)c2ccc(Cl)cc2c1=O)c1ccc2c(c1)OC(F)(F)O2` [Example 54, 2-(7-chloro-1-oxo-4-(pyridin-3-ylmethyl)phthalazin-2(1H)-yl)-N-(2,2-difluorobenzo[d][1,3]dioxol-5-yl)-N-ethylacetamide], less than 10 µM; with `CCN(C(=O)Cn1nc(Cc2cccnc2)c2cccc(OC)c2c1=O)c1ccc2c(c1)OC(F)(F)O2` [Example 55, N-(2,2-difluorobenzo[d][1,3]dioxol-5-yl)-N-ethyl-2-(8-methoxy-1-oxo-4-(pyridin-3-ylmethyl)phthalazin-2(1H)-yl)acetamide], less than 10 µM. With `CCN(C(=O)Cn1nc(Cc2cccnc2)c2c(OC)cccc2c1=O)c1ccc2c(c1)OC(F)(F)O2` [Example 56, N-(2,2-difluorobenzo[d][1,3]dioxol-5-yl)-N-ethyl-2-(5-methoxy-1-oxo-4-(pyridin-3-ylmethyl)phthalazin-2(1H)-yl)acetamide] the figure was less than 10 µM. For `CCOc1cccc2c(Cc3cccnc3)nn(CC(=O)N(CC)c3ccc4c(c3)OC(F)(F)O4)c(=O)c12` [Example 57, N-(2,2-difluorobenzo[d][1,3]dioxol-5-yl)-N-ethyl-2-(8-ethoxy-1-oxo-4-(pyridin-3-ylmethyl)phthalazin-2(1H)-yl)acetamide], the EC50 is less than 10 µM.

As to `CCOc1cccc2c(=O)n(CC(=O)N(CC)c3ccc4c(c3)OC(F)(F)O4)nc(Cc3cccnc3)c12` [Example 58, N-(2,2-difluorobenzo[d][1,3]dioxol-5-yl)-N-ethyl-2-(5-ethoxy-1-oxo-4-(pyridin-3-ylmethyl)phthalazin-2(1H)-yl)acetamide], the EC50 lay in the range of 10 to 20 µM. The figure for `CCN(C(=O)Cn1nc(Cc2cccnc2)c2cccc(OC3CCCCC3)c2c1=O)c1ccc2c(c1)OC(F)(F)O2` [Example 59, 2-(8-(cyclohexyloxy)-1-oxo-4-(pyridin-3-ylmethyl)phthalazin-2(1H)-yl)-N-(2,2-difluorobenzo[d][1,3]dioxol-5-yl)-N-ethylacetamide] is less than 10 µM. Consider `CCN(C(=O)Cn1nc(Cc2cccnc2)c2c(OC3CCCCC3)cccc2c1=O)c1ccc2c(c1)OC(F)(F)O2` [Example 60, 2-(5-(cyclohexyloxy)-1-oxo-4-(pyridin-3-ylmethyl)phthalazin-2(1H)-yl)-N-(2,2-difluorobenzo[d][1,3]dioxol-5-yl)-N-ethylacetamide], for which the concentration giving a half-maximal response (EC50) was less than 10 µM. With `CCN(C(=O)Cn1nc(Cc2cccnc2)c2cccc(OCCOC)c2c1=O)c1ccc2c(c1)OC(F)(F)O2` [Example 61, N-(2,2-difluorobenzo[d][1,3]dioxol-5-yl)-N-ethyl-2-(8-(2-methoxyethoxy)-1-oxo-4-(pyridin-3-ylmethyl)phthalazin-2(1H)-yl)acetamide] the figure was less than 10 µM. The figure for `CCN(C(=O)Cn1nc(Cc2cccnc2)c2c(OCCOC)cccc2c1=O)c1ccc2c(c1)OC(F)(F)O2` [Example 62, N-(2,2-difluorobenzo[d][1,3]dioxol-5-yl)-N-ethyl-2-(5-(2-methoxyethoxy)-1-oxo-4-(pyridin-3-ylmethyl)phthalazin-2(1H)-yl)acetamide] is less than 10 µM.

For `COc1ccc2c(-c3cccc(C#N)c3)nn(CC(=O)N(C)c3ccc4c(c3)OC(F)(F)O4)c(=O)c2c1` [Example 63, 2-(4-(3-cyanophenyl)-7-methoxy-1-oxophthalazin-2(1H)-yl)-N-(2,2-difluorobenzo[d][1,3]dioxol-5-yl)-N-methylacetamide], the EC50 is less than 10 µM. The figure for `COc1ccc2c(-c3ccc(S(N)(=O)=O)cc3)nn(CC(=O)N(C)c3ccc4c(c3)OC(F)(F)O4)c(=O)c2c1` [Example 64, N-(2,2-difluorobenzo[d][1,3]dioxol-5-yl)-2-(7-methoxy-1-oxo-4-(4-sulfamoylphenyl)phthalazin-2(1H)-yl)-N-methylacetamide] is less than 10 µM; for `CCN(C(=O)Cn1nc(-c2ccc(S(N)(=O)=O)cc2)c2ccc(OC)cc2c1=O)c1ccc2c(c1)OC(F)(F)O2` [Example 65, N-(2,2-difluorobenzo[d][1,3]dioxol-5-yl)-N-ethyl-2-(7-methoxy-1-oxo-4-(4-sulfamoylphenyl)phthalazin-2(1H)-yl)acetamide] it is less than 10 µM; for `CCN(C(=O)Cn1nc(-c2ccc(S(N)(=O)=O)cc2)c2ccc(OC)cc2c1=O)c1ccc(OC(F)F)cc1` [Example 66, N-(4-(difluoromethoxy)phenyl)-N-ethyl-2-(7-methoxy-1-oxo-4-(4-sulfamoylphenyl)phthalazin-2(1H)-yl)acetamide] it is more than 20 µM. The figure for `CCN(C(=O)Cn1nc(-c2cccc(C#N)c2)c2ccc(OC)cc2c1=O)c1ccc(OC(F)F)cc1` [Example 67, 2-(4-(3-cyanophenyl)-7-methoxy-1-oxophthalazin-2(1H)-yl)-N-(4-(difluoromethoxy)phenyl)-N-ethylacetamide] is less than 10 µM; for `COc1ccc2c(-c3ccc(S(N)(=O)=O)cc3)nn(CC(=O)N(c3ccc4c(c3)OC(F)(F)O4)C(C)C)c(=O)c2c1` [Example 69, N-(2,2-difluorobenzo[d][1,3]dioxol-5-yl)-N-isopropyl-2-(7-methoxy-1-oxo-4-(4-sulfamoyl-phenyl)phthalazin-2(1H)-yl)acetamide] it is less than 10 µM. The figure for `COc1ccc2c(-c3cccc(C#N)c3)nn(CC(=O)N(c3ccc4c(c3)OC(F)(F)O4)C(C)C)c(=O)c2c1` [Example 70, 2-(4-(3-cyanophenyl)-7-methoxy-1-oxophthalazin-2(1H)-yl)-N-(2,2-difluorobenzo[d][1,3]dioxol-5-yl)-N-isopropylacetamide] is less than 10 µM.

The values are drawn from patent US9790215B2 (FLATLEY DISCOVERY LAB, LLC, priority 2013, dated 2017).
